Experimental data from patent US20190175491A1, “TOPICAL COMPOSITIONS OF APREMILAST” (TORRENT PHARMACEUTICALS LIMITED, priority 2016, published 2019).

What was measured:
Solubility of apremilast = assay type: physicochemical
Source text: Apremilast is insoluble in water. Even in polar solvent phase, only 0.066% of apremilast was found soluble. Therefore, it is challenging to formulate a topical composition of apremilast having an amount, which provides effective concentration of apremilast at the site of action.

[1] = cited from earlier work
[2] = oral Apremilast; cited from earlier work

SMILES: CCOc1cc([C@@H](CS(C)(=O)=O)N2C(=O)c3cccc(NC(C)=O)c3C2=O)ccc1OC [Apremilast, N-{2-[(1S)-1-(3-Ethoxy-4-methoxyphenyl)-2-(methylsulfonyl)ethyl]-1,3-dioxo-2,3-dihydro-1H-isoindol-4-yl} acetamide]
- apremilast found soluble in polar solvent phase (Solubility of apremilast): 0.066%
- solubility in water [1]: insoluble
- most commonly reported adverse reactions [2]: Diarrhea, nausea and headache
